In PMC4597613, “Polyhedra structures and the evolution of the insect viruses” (Journal of Structural Biology, 2015):

Assays:
[1] = molecular target: CPV20 polyhedrin (Simulium ubiquitum cypovirus, UniProt Q0MX25); experiment: X-ray crystal structure of polyhedra, […] A; type: binding; conditions: nucleotide trapped in crystal from Sf9 cells; pyrimidine region in trimer interface; not well ordered, identity inferred from space and hydrogen bonding
[2] = molecular target: CPV15 polyhedrin (Trichoplusia ni cypovirus 15, UniProt Q9ELS6); conditions: nucleotide trapped in crystal from Sf9 cells; two ATPs in purine cluster site, one on V3 and V2c, the other at the 2-fold axis
[3] = molecular target: CPV18 polyhedrin (Operophtera brumata cypovirus 18, UniProt Q30C70); experiment: X-ray crystal structure of polyhedra, […] A; type: binding; conditions: nucleotide trapped in crystal from Sf9 cells, purine cluster

O=c1ccn([C@@H]2O[C@H](COP(=O)(O)OP(=O)(O)OP(=O)(O)O)[C@@H](O)[C@H]2O)c(=O)[nH]1 [UTP]
X-ray crystal structure of polyhedra, 1.83 A [1]: The pyridine in CPV20 is not well ordered, but can be identified as UTP

Nc1ncnc2c1ncn2[C@@H]1O[C@H](COP(=O)(O)OP(=O)(O)OP(=O)(O)O)[C@@H](O)[C@H]1O [ATP]
X-ray crystal structure of polyhedra, 1.82 A [2]: leaving space for two ATPs in different conformations to CPV1 | X-ray crystal structure of polyhedra, 1.48 A ([3]; V4 regions of two chains, H154 to phosphates): ATP is supported by two V4 regions from different polypeptide chains

Nc1nc2c(ncn2[C@@H]2O[C@H](COP(=O)(O)OP(=O)(O)OP(=O)(O)O)[C@@H](O)[C@H]2O)c(=O)[nH]1 [GTP]
X-ray crystal structure of polyhedra, 1.48 A ([3]; V2c and V1): GTP hydrogen bonds with V2c and V1
